Assay results reported in paper PMC6839174, “Targeting the Formyl Peptide Receptor type 1 to prevent the adhesion of ovarian cancer cells onto mesothelium and subsequent invasion” (Journal of Experimental & Clinical Cancer Research : CR, 2019).
Non-standard residues stand in square brackets, D forms with d. No end group written: not given here. *: point of attachment. Nle = CCCC[C@H](N)C(=O)O; For = O=C*

Legend:
FPR1 [1] = assay: Agonist-dependent FPR1 internalization in EOC cells (confocal microscopy); format: cell-based, human; settings: primary EOC cells, 10 nM fluorescent peptide, 30 min at 37 °C
Procedure: Cells (2 × 10^4/sample) were seeded on glass coverslips and cultured for 24 h in growth medium. Then, slides were washed with PBS, fixed with 2.5% formaldehyde in PBS for 10 min at 4 °C and incubated for 1 h at 4 °C with 2 μg/mL R4 anti-uPAR mAb or 1:100 rabbit anti-FPR1 Ab (#113531Ab, Abcam). Then, 1:700 goat Alexa Fluor 488 anti-rabbit IgG, or rabbit Alexa Fluor 488-conjugated F(ab’)2 fragment of anti-mouse IgG (Molecular Probes) were applied to slides at 23 °C for 40 min. Nuclear staining was performed with 4-6-diamidino-2-phenylindole dye (DAPI). To analyze agonist-dependent FPR1 internalization, cells grown on glass slides were exposed to 10 nM FITC-fMLF or 10 nM FITC-RI-3 diluted in serum-free DMEM for 30 min at 37 °C as described. After extensive washing with PBS, coverslips were mounted using 20% (w/v) mowiol, visualized with the 510 META-LSM confocal microscope (Carl Zeiss).

SKOV-3 cells [2] = assay: Adhesion kinetic of SKOV-3 cells onto Vn monitored in real time (xCELLigence); format: cell-based, Human; settings: SKOV-3 pre-exposed to 100 nM peptide, 2 h, cell index, quadruplicate representative of 3 replicates
Procedure: This assay was performed using E-16-well plates and the xCELLigence Real Time Cell Analysis technology. Bottom wells were coated with serum-free medium, 5 μg mL Vn, 5 μg mL Fn, 5 μg mL Lm or 15 μg mL Coll diluted in serum-free medium prior to seeding cells (1 × 10^4 cells/well) suspended in serum-free medium. Cells that adhere to the bottom of plates cause impedance changes which are proportional to the number of cells. The impedance value of each well was automatically monitored in real-time for at least 2 h and expressed as a cell index value. The experiments were performed three times in quadruplicate.

FPR1 [3] = settings: 100 nM peptide, 30 min at 37 °C; ref [37], [38]; cited from earlier work
SKOV-3 cells [4] = assay: Adhesion of SKOV-3 cells onto extracellular matrix proteins (24-well plates, cell counting); format: cell-based, Human; settings: SKOV-3 pre-incubated with 100 nM peptide 30 min at 37 °C, 2 h; for cell adhesion onto Coll, Fn or Lm after desensitization: collagen, fibronectin, laminin; for cell adhesion onto Vn after desensitization: vitronectin, means ± SD of three independent experiments
Procedure: Adhesion assays were performed using 24 multi-well plates coated with 1% BSA, 5 μg mL vitronectin (Vn), 5 μg mL fibronectin (Fn), 5 μg mL laminin (Lm) or 15 μg mL collagen (Coll) diluted in serum-free medium. Sub-confluent cells were harvested by a mild trypsinization, incubated with 10% FBS / DMEM for 1 h at 37 °C, 5% CO2, acid treated with a buffer containing 50 mM glycin-HC1, 0.1 M NaCl, pH 3 for 4 min at 22 °C, to remove receptor-bound ligands, and counted. Viable cells (2 × 10^5 cells per well) were plated in serum-free medium, in the absence or presence of 2 μg/mL R3 mAb recognizing the DI uPAR domain, 2 μg/mL399 anti-uPAR (American Diagnostica), 2 μg/mL anti-uPAR84-95 (PRIMM), 2 μg/mL anti-α-tubulin (Cell Signaling) Abs or 10 nM RI-3, and allowed to adhere for 2 h at 37 °C, 5% CO2. […] At the end of the assay, adherent cells were removed with 0.05% trypsin, and counted. The number of adherent cells was expressed as a percentage of the basal cell adhesion (CTRL). The experiments were performed at least three times in triplicate.

FPR1 [5] = assay: Ligand binding assay with FITC-RI-3 on primary EOC cells; set-up: species or system human; settings: for prevention of FITC-RI-3 binding by unlabeled peptide: primary EOC cells, 100 nM peptide pre-incubated 60 min at 4 °C, then 10 nM FITC-RI-3 60 min at 4 °C, three experiments
Procedure: EOC cells were pre-incubated with diluents or the indicated unlabeled peptides for 60 min at 4 °C (to avoid internalization), extensively rinsed with phosphate buffer saline (PBS), exposed to 10 nM FITC-RI-3 diluted in PBS, for additional 60 min at 4 °C and again rinsed with PBS. Quantification of cell associated fluorescence was assessed by reading cells with the fluorescence plate reader Victor 3. The experiments were performed three times in duplicate.

vitronectin receptor = tested on: vitronectin receptor; set-up: method as in PMID 15866865, PMID 20880257; settings: inside-out mechanism involving PKC, AKT and MAPK; ref [26], [28]; cited from earlier work
[6] = tested on: cell migration and ECM attachment; settings: independently of the uPA catalytic activity; ref [14], [24]–[26]; cited from earlier work
Excerpt: Ovarian cancer cells detach from the primary tumor and float in the ascitic fluid as single cells or multicellular, chemo-resistant spheroids. Then, floating cancer cells must resist anoikis triggered by lack of attachment to the mesothelium to evade clearance through the peritoneal lymphatics.

cell migration = settings: FITC-RI-3, compared with non-fluorescent peptide; ref [38]; cited from earlier work
Excerpt: In order to obtain primary cultures of EOC cells, representative fragments of tissue samples were fragmented and cells recovered, as described in the Methods. By enzymatic digestion of a HGSC tissue sample (patient #5), a primary cell culture expressing high levels of both uPAR and FPR1 on cell surface as shown by IHC, was obtained (Figs. 4 and 5a). Subsequent sub-cloning of isolated cell clusters (Fig. 5b) followed by five passages allowed us to obtain an adherent, homogeneous, CD326 positive cell population. These EOC cells express a considerable amount of both uPAR and FPR1 as shown by West ...

EOC cells = assay: EOC cell adhesion to and crossing of mesothelial cell monolayers (summary statement); format: cell-based, human; settings: EOC cells exposed to RI-3 or desensitized with an excess of SRSRY
Procedure: HPMCs (1 × 10^5 cells/well) suspended in growth medium, were seeded in 24-well plates and allowed to adhere for about 20 h until they form a confluent monolayer, prior to seeding GFP-tagged EOC cells suspended in growth medium plus diluents or 10 nM RI-3. At the indicated times, plates were accurately washed with PBS and cell-associated fluorescence was assessed by a fluorescence plate reader a fluorescence plate reader (Victor 3, Perkin Elmer), using 485 nm excitation and 535 nm emission filters. The experiments were performed three times in triplicate.
HPMCs (5 × 10^3 cells/well) suspended in growth medium, were seeded in E-16-well plates and allow to adhere for 18–20 h until they form a confluent monolayer, prior to seeding EOC cells (2 × 10^4 cells/well) in growth medium plus/minus 10 nM RI-3. When HPMCs are challenged with invading cells, there is a drop in electrical resistance within 2–4 h which is monitored in real-time as the Cell Index changes due to the rupture of mesothelium. The experiments were performed three times in quadruplicate.

Substance | FPR1 internalization (FPR1 [1]) | adhesion onto Vn in real time after desensitization (SKOV-3 cells [2]) | availability of FPR1 on cell surface after desensitization (FPR1 [3]) | cell adhesion onto Coll, Fn or Lm after desensitization (SKOV-3 cells [4]) | cell adhesion onto Vn after desensitization (SKOV-3 cells [4]) | prevention of FITC-RI-3 binding by unlabeled peptide (FPR1 [5]) | FPR1 interaction activating the vitronectin receptor (vitronectin receptor) | regulation of cell migration and ECM attachment [6] | further results
For-[Nle]LF[Nle]YK [FITC-fMLF, fluorescein conjugate hexapeptide Formyl-Nle-Leu-Phe-Nle-Tyr-Lys, reference compound] | caused FPR1 internalization |  |  |  |  |  |  |  | 
ARARY [control peptide ARARY] |  | ineffective |  |  |  |  |  |  | 
N-Formyl-L-methionyl-L-leucyl-L-phenylalanine [fMLF] |  | abrogates cell capability to adhere onto Vn | unavailability of FPR1 on cell surface | not onto Coll, Fn or Lm | lose the ability to adhere onto Vn | prevented |  |  | 
uPAR84–95: The domain boundary between DI-DII (uPAR84–95 sequence) (AVTYSRSRYLEC; UniProt Q03405 106-117, looked up, fragment) |  |  |  |  |  |  | internalizes and activates the vitronectin receptor | potent regulators of cell migration and ECM attachment | 
Ac-(D)-Tyr-(D)-Arg-Aib-(D)-Arg-Ahx-Lys (N^ɛ-FITC)-NH2 [FITC-RI-3, fluorescein-conjugate of RI-3] | little or no internalization |  |  |  |  |  |  |  | FPR1 binding and inhibition of cell migration (cell migration): binding FPR1 and inhibiting cell migration like the non-fluorescent peptide; binding of FITC-RI-3 to EOC cell surface (FPR1 [5]; primary EOC cells (patient #5), 10 nM FITC-RI-3 in PBS, 60 min at 4 °C, fluorescence): specific, saturable RI-3 uptake on EOC cell surface
Ser-Arg-Ser-Arg-Tyr [SRSRY, synthetic shorter pentapeptide uPAR88–92] |  | abrogates cell capability to adhere onto Vn | unavailability of FPR1 on cell surface | not onto Coll, Fn or Lm | lose the ability to adhere onto Vn | prevented | internalizes and activates the vitronectin receptor | potent regulators of cell migration and ECM attachment | ability to cross mesothelial cell monolayers (abstract) (EOC cells): losing the ability to cross them
